# Measured values: paper PMC10507085, “Pharmacological inhibition of TBK1/IKKε blunts immunopathology in a murine model of SARS-CoV-2 infection” (Nature Communications, 2023)
# Assays:
# Assay in all cases: biochemical
# Parameters in all cases: KINOMEscan competition binding, DNA-tagged kinase against immobilised ligand, qPCR read-out
# Conditions in all cases: read-out: Percent Control
# MAP3K6 = MAP3K6 (Homo sapiens, UniProt O95382)
# CSNK1A1L = CSNK1A1L (Homo sapiens, UniProt Q8N752)
# PAK3 = PAK3 (Homo sapiens, UniProt O75914)
# PRKCE = PRKCE (Homo sapiens, UniProt Q02156)
# Sequence of PRKCE (Q02156 whole entry): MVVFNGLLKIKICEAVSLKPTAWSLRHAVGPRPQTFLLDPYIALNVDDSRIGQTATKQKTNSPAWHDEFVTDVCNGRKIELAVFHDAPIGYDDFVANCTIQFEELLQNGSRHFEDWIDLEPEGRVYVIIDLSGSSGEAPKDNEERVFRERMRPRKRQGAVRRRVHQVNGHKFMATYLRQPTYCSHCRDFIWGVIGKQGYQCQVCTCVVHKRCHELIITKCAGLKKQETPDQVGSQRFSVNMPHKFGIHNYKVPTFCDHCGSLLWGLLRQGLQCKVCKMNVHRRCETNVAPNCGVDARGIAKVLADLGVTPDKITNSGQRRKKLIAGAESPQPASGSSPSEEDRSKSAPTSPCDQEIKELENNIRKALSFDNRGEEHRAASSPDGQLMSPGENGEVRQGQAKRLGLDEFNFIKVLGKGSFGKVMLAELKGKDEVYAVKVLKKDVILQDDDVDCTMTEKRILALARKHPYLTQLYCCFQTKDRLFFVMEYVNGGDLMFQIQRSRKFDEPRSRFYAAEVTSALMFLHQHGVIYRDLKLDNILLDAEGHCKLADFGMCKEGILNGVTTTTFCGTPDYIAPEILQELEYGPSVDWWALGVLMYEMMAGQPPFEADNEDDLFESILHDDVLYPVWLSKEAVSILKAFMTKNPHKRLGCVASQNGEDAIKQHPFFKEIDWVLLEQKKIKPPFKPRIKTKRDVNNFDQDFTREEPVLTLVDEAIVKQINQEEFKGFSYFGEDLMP
# CDK17 = CDK17 (Homo sapiens, UniProt Q00537)
# Sequence of CDK17 (Q00537 whole entry): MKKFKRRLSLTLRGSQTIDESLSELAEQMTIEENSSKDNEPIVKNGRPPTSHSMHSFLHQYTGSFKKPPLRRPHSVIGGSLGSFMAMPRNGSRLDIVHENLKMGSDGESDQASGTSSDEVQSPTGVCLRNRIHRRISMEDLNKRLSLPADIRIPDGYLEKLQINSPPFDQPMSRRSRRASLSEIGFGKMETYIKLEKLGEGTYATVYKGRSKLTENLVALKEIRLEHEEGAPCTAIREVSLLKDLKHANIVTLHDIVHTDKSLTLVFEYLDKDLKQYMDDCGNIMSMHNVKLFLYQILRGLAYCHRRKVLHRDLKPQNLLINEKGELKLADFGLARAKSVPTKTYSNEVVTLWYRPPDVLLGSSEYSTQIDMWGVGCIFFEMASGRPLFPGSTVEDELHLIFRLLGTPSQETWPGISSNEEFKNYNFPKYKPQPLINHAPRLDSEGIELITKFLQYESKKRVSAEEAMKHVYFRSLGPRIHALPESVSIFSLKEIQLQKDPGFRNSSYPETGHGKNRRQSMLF
# DAPK1 = DAPK1 (Homo sapiens, UniProt P53355)
# PIK3CG = PIK3CG (Homo sapiens, UniProt P48736)
# FGFR1 = FGFR1 (Homo sapiens, UniProt P11362)
# Sequence of FGFR1 (P11362 whole entry): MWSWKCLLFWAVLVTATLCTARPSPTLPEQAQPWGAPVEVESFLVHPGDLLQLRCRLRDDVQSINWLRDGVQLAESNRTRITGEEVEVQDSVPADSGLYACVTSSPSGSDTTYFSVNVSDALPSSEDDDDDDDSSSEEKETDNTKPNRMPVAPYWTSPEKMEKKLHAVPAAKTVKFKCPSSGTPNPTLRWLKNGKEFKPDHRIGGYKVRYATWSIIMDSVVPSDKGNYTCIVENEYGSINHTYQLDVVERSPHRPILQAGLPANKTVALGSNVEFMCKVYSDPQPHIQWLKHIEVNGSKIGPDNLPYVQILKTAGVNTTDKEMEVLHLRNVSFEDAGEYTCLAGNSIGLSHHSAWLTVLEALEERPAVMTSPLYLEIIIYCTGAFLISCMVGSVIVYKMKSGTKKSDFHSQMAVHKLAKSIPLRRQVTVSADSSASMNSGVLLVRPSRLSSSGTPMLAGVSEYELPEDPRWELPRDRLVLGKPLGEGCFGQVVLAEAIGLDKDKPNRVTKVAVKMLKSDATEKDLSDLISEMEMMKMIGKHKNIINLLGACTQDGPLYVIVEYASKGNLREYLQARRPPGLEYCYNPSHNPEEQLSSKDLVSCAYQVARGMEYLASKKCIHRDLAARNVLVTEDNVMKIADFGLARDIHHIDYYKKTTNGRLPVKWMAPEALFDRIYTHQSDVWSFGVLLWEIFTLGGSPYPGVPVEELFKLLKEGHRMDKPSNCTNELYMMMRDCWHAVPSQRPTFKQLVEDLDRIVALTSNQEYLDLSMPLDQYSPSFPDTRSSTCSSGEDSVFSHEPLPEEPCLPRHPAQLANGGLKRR
# MINK1 = MINK1 (Homo sapiens, UniProt Q8N4C8)
# PAK1 = PAK1 (Homo sapiens, UniProt Q13153)
# FLT3-autoinhibited = FLT3-autoinhibited (Homo sapiens, UniProt P36888)
# OXSR1 = OXSR1 (Homo sapiens, UniProt O95747)
# PAK6 = PAK6 (Homo sapiens, UniProt Q9NQU5)
# Sequence of PAK6 (Q9NQU5 whole entry): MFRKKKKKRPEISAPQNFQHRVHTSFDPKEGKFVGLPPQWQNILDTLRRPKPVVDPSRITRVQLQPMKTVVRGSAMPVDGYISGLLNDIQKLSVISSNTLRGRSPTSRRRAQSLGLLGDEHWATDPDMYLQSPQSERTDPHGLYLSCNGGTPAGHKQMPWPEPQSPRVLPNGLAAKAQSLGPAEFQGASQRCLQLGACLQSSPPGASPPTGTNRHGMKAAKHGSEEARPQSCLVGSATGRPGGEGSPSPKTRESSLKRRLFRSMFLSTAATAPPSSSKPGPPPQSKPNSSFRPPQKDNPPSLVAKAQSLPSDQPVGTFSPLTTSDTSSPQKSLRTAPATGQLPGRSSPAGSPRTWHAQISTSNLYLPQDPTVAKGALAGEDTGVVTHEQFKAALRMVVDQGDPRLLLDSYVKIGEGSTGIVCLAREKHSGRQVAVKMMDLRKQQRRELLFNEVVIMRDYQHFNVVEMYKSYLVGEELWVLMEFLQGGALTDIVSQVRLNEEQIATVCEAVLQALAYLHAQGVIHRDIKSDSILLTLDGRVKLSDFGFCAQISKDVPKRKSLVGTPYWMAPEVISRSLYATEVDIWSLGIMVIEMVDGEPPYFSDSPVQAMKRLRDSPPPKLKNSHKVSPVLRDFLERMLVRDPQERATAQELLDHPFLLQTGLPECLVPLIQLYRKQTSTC
# TESK1 = TESK1 (Homo sapiens, UniProt Q15569)
# Sequence of TESK1 (Q15569 whole entry): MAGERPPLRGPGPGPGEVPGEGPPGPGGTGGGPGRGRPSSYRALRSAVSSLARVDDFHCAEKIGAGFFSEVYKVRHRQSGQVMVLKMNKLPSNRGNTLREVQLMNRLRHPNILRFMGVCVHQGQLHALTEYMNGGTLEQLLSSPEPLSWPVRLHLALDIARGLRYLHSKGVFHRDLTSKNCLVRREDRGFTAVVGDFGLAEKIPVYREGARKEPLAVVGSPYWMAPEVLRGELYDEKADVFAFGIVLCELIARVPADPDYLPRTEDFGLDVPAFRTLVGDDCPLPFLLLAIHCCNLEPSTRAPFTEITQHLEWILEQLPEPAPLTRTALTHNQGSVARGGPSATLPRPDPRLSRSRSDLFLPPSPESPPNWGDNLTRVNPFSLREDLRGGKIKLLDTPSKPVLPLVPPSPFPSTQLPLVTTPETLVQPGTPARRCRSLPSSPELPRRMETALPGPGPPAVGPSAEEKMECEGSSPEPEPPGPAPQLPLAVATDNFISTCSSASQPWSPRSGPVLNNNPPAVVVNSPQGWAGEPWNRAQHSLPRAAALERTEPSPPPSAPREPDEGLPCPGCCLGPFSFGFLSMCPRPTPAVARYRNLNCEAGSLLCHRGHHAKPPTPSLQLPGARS
# FLT4 = FLT4 (Homo sapiens, UniProt P35916)
# CAMKK2 = CAMKK2 (Homo sapiens, UniProt Q96RR4)
# Sequence of CAMKK2 (Q96RR4 whole entry): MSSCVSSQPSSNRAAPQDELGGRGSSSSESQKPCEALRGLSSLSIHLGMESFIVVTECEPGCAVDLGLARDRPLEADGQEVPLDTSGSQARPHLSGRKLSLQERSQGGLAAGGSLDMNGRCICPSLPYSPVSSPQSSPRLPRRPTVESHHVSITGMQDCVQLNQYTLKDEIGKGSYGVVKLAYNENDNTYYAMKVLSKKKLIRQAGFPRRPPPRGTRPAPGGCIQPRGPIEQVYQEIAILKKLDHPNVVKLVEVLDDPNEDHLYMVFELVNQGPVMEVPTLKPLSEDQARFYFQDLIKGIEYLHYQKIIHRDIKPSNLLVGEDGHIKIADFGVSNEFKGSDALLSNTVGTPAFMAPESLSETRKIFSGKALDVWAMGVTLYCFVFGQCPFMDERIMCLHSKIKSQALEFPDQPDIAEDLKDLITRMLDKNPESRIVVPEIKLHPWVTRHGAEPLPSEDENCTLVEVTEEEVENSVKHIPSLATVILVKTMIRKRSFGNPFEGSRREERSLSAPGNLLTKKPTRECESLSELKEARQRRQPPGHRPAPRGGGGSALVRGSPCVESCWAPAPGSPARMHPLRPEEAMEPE
# LCK = LCK (Homo sapiens, UniProt P06239)
# IGF1R = IGF1R (Homo sapiens, UniProt P08069)
# TEK = TEK (Homo sapiens, UniProt Q02763)
# [1] = biological target: T1, RSK1(Kin.Dom.1-N-terminal) (Homo sapiens, UniProt Q15418)
# T1 construct: gene RPS6KA1; Kin.Dom.1 N-terminal
# T1 sequence (Q15418 whole entry): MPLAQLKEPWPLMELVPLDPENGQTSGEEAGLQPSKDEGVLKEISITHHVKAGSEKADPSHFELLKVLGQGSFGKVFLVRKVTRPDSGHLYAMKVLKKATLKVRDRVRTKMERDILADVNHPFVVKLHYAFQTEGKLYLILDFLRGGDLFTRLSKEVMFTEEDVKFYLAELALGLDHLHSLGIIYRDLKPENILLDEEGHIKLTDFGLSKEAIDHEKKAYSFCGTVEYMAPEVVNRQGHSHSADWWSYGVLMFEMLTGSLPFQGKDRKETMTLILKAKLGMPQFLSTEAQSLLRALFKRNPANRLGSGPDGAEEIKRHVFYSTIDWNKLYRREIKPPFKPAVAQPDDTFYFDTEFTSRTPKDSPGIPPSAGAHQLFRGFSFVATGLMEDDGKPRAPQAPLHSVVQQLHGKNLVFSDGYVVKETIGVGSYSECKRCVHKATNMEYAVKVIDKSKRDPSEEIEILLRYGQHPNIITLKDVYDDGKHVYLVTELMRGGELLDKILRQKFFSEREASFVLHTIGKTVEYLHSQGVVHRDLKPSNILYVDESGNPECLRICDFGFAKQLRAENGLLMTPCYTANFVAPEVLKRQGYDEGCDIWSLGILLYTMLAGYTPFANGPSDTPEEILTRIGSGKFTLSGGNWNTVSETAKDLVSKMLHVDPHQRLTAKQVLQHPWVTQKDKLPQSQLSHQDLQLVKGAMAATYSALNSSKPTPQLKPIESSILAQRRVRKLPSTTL
# Sequence of CSNK1A1L (Q8N752 whole entry): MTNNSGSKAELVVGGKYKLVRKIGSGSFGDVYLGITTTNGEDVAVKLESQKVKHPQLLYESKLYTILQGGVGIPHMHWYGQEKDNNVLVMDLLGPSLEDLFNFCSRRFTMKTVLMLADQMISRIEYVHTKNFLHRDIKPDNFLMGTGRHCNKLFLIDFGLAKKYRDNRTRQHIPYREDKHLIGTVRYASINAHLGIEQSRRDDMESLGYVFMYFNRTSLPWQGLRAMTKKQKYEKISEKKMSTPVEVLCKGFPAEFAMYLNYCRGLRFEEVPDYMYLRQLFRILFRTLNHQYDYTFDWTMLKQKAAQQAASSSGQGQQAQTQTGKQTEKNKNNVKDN
smiles,measurement,setting,value
"Oc1ccc(C2=Cc3ccc(O)cc3OC2)cc1 [compound 1, idronoxil]",remaining binding at 10 µM,MAP3K6,88%
same,remaining binding at 10 µM,CSNK1A1L,96%
same,remaining binding at 10 µM,PAK3,100%
same,remaining binding at 10 µM,PRKCE,92%
same,remaining binding at 10 µM,CDK17,97%
same,remaining binding at 10 µM,DAPK1,53%
same,remaining binding at 10 µM,PIK3CG,79%
same,remaining binding at 10 µM,FGFR1,92%
same,remaining binding at 10 µM,MINK1,38%
same,remaining binding at 10 µM,PAK1,60%
same,remaining binding at 10 µM,FLT3-autoinhibited,51%
same,remaining binding at 10 µM,OXSR1,75%
same,remaining binding at 10 µM,PAK6,100%
same,remaining binding at 10 µM,TESK1,86%
same,remaining binding at 10 µM,FLT4,100%
same,remaining binding at 10 µM,CAMKK2,68%
same,remaining binding at 10 µM,LCK,60%
same,remaining binding at 10 µM,IGF1R,84%
same,remaining binding at 10 µM,TEK,96%
same,remaining binding at 10 µM,[1],71%
